Activity calls are given as the source filed them. The calls are words filed in the database; no cut-off is given here.
Legend:
MDA-MB-231 = test: Antiproliferative activity against human MDA-MB-231 cells after 72 hrs by SRB assay; format: functional, cell-based; conditions: MDA-MB-231, 72 h
[1] = target: Heat shock protein HSP 90-alpha (Homo sapiens) (UniProt P07900); test: Binding affinity to HSP90alpha in HEK293T cells assessed as induction of thermal stabilisation of HSP90alpha at 10 uM pre-incubated for 3 hrs followed by heating at 37 to 63 degC for 3 mins then subsequent cooling for 3 mins by Western blot-based CESTA relative to beta actin; format: cell-based
[2] = target: Heat shock protein HSP 90-alpha (Homo sapiens) (UniProt P07900); test: Inhibition of HSP90alpha in human MDA-MB-453 cells assessed as down-regulation of HER2 levels by Western blot analysis; format: cell-based
[3] = target: Heat shock protein HSP 90-alpha (Homo sapiens) (UniProt P07900); test: Inhibition of HSP90alpha in human MDA-MB-453 cells assessed as down-regulation of EGFR levels by Western blot analysis; format: cell-based
[4] = target: Heat shock protein HSP 90-alpha (Homo sapiens) (UniProt P07900); test: Inhibition of HSP90alpha in human MDA-MB-453 cells assessed as down-regulation of cdc2 levels by Western blot analysis; format: cell-based
[5] = target: Heat shock protein HSP 90-alpha (Homo sapiens) (UniProt P07900); test: Inhibition of HSP90alpha in human MDA-MB-453 cells assessed as down-regulation of CDK4 levels by Western blot analysis; format: cell-based
[6] = target: Heat shock protein HSP 90-alpha (Homo sapiens) (UniProt P07900); test: Inhibition of HSP90alpha in human MDA-MB-453 cells assessed as down-regulation of C-RAF levels by Western blot analysis; format: cell-based
MDA-MB-453 [7] = test: Cell cycle arrest in human MDA-MB-453 cells assessed as increase in accumulation at G0/G1 phase at 0.25 to 1 uM after 12 hrs by propidium iodide-staining based flow cytometry; format: functional
SH-SY5Y = test: Antiproliferative activity against human SH-SY5Y cells by SRB assay; format: functional, cell-based
HeLa = test: Antiproliferative activity against human HeLa cells by SRB assay; format: functional, cell-based
A549 = test: Antiproliferative activity against human A549 cells by SRB assay; format: functional, cell-based
HepG2 = test: Antiproliferative activity against human HepG2 cells by SRB assay; format: functional, cell-based
PC-3 = test: Antiproliferative activity against human PC3 cells by SRB assay; format: functional, cell-based
MCF7 = test: Antiproliferative activity against human MCF7 cells by SRB assay; format: functional, cell-based
MDA-MB-453 [8] = test: Induction of apoptosis in human MDA-MB-453 cells assessed as necrotic cells at 0.25 uM after 48 hrs by Annexin V-FITC/propidium iodide-staining based flow cytometry (reference value: 0.01%); format: functional
MDA-MB-453 [9] = test: Induction of apoptosis in human MDA-MB-453 cells assessed as early apoptotic cells at 1 uM after 48 hrs by Annexin V-FITC/propidium iodide-staining based flow cytometry (reference value: 1.65%); format: functional
MDA-MB-453 [10] = test: Induction of apoptosis in human MDA-MB-453 cells assessed as early apoptotic cells at 4 uM after 48 hrs by Annexin V-FITC/propidium iodide-staining based flow cytometry (reference value: 1.65%); format: functional
MDA-MB-453 [11] = test: Induction of apoptosis in human MDA-MB-453 cells assessed as increase in cleaved caspase3 activity at 0.25 uM up to 48 hrs by Western blot analysis; format: functional, cell-based
MDA-MB-453 [12] = test: Induction of apoptosis in human MDA-MB-453 cells assessed as increase in cleaved caspase7 activity at 0.25 uM up to 48 hrs by Western blot analysis; format: functional, cell-based
MDA-MB-453 [13] = test: Induction of apoptosis in human MDA-MB-453 cells assessed as increase in cleaved PARP activity at 0.25 uM up to 48 hrs by Western blot analysis; format: functional, cell-based
MDA-MB-453 [14] = test: Induction of apoptosis in human MDA-MB-453 cells assessed as increase in cleaved caspase7 activity at 0.25 uM up to 48 hrs in presence of z-VAD-fmk by Western blot analysis; format: functional, cell-based
MDA-MB-453 [15] = test: Induction of apoptosis in human MDA-MB-453 cells assessed as increase in cleaved PARP activity at 0.25 uM up to 48 hrs in presence of z-VAD-fmk by Western blot analysis; format: functional, cell-based
MDA-MB-453 [16] = test: Induction of apoptosis in human MDA-MB-453 cells assessed downregulation of bcl-xl expression at 0.25 uM at 48 hrs by Western blot analysis; format: functional, cell-based
[17] = target: Heat shock protein HSP90 (Homo sapiens) (UniProt P07900+P08238); test: Inhibition of HSP90 in human MDA-MB-453 cells assessed as suppression of TNFalpha-induced NFkappaB activation by measuring reduction in relA/p65 translocation to the nucleus at 0.25 uM after 24 hrs by Western blot analysis; format: cell-based
[18] = target: T1, MAP kinase p38 (Homo sapiens) (UniProt O15264+Q15759+Q16539+P53778); test: Induction of p38 phosphorylation in human MDA-MB-453 cells at 0.25 uM after 48 hrs by Western blot analysis; format: cell-based
[19] = target: T1, MAP kinase p38 (Homo sapiens); test: Induction of p38 phosphorylation in human MDA-MB-453 cells at 0.25 uM after 48 hrs in presence of […] by Western blot analysis; format: cell-based
[20] = target: T1, MAP kinase p38 (Homo sapiens); test: Induction of p38 in human MDA-MB-453 cells assessed as upregulation of Hsp27 Ser82 phosphorylation at Ser82 at 0.25 uM after 2 hrs by Western blot analysis; format: cell-based
[21] = target: T1, MAP kinase p38 (Homo sapiens); test: Induction of p38 in human MDA-MB-453 cells assessed as upregulation of Hsp27 phosphorylation at Ser82 at 0.25 uM after 2 hrs in presence of […] by Western blot analysis; format: cell-based
[22] = target: NF-kappa-B essential modulator (Homo sapiens) (UniProt Q9Y6K9); test: Induction of IKKgamma association to hsp27 in human MDA-MB-453 cells at 0.25 uM after 6 hrs by immunoprecipitation and Western analysis; format: cell-based
NF-kappa-B essential modulator (Homo sapiens), sequence (Q9Y6K9 whole entry): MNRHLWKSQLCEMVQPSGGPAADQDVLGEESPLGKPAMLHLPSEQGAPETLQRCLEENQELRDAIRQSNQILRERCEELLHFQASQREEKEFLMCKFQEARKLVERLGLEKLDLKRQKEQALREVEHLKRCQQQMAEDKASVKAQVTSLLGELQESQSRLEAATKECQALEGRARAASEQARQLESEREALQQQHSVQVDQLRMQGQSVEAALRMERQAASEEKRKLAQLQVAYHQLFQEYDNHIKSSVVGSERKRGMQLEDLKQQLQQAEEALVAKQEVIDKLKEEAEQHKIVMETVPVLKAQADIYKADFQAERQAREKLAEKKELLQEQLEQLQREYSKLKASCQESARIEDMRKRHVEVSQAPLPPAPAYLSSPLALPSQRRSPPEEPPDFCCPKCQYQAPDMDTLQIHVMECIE

## O=C(NCc1ccncc1)[C@H]1Cc2ccccc2CN1C(=O)c1cc(Cl)c(O)cc1O
MDA-MB-231
  IC50: 300 nM
[1]
  Activity: Active
[2]
  inhibition: Dose-dependent effect
[3]
  inhibition: Dose-dependent effect
[4]
  inhibition: Dose-dependent effect
[5]
  inhibition: Dose-dependent effect
[6]
  inhibition: Dose-dependent effect
MDA-MB-453 [7]
  Activity: Active
SH-SY5Y
  Activity: Active
HeLa
  Activity: Active
A549
  Activity: Active
HepG2
  Activity: Active
PC-3
  Activity: Active
MCF7
  Activity: Active
MDA-MB-453 [8]
  Activity: 0.02%
MDA-MB-453 [9]
  Activity: 15.88%
MDA-MB-453 [10]
  Activity: 23.49%
MDA-MB-453 [11]
  Activity: Active
MDA-MB-453 [12]
  Activity: Active
MDA-MB-453 [13]
  Activity: Active
MDA-MB-453 [14]
  Activity: inactive
MDA-MB-453 [15]
  Activity: inactive
MDA-MB-453 [16]
  Activity: Active
[17]
  inhibition: Active
[18]
  Activity: Active
[19]
  Activity: inactive
[20]
  Activity: Active
[21]
  Activity: inactive
[22]
  Activity: Active
